Test results as given in PubChem BioAssay (NCI).
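In this assay, cells in 96-well plates receive the compound at five concentrations for 48 hours. Endpoints are linearly interpolated between the surrounding concentrations. The concentration for 50% growth inhibition is given as GI50. The concentration for full growth arrest is given as TGI.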

Tests used:
Test in all cases: DTP human tumour cell line panel, 48 h
LOX IMVI melanoma = system: LOX IMVI melanoma
TK-10 renal = system: TK-10 renal
CCRF-CEM leukemia = system: CCRF-CEM leukemia
OVCAR-4 ovarian = system: OVCAR-4 ovarian
HT29 colon = system: HT29 colon
SF-539 CNS = system: SF-539 CNS
SNB-19 CNS = system: SNB-19 CNS
COLO 205 colon = system: COLO 205 colon
M19-MEL melanoma = system: M19-MEL melanoma
NCI-H460 lung = system: NCI-H460 lung
NCI-H226 lung = system: NCI-H226 lung
CAKI-1 renal = system: CAKI-1 renal
SN12C renal = system: SN12C renal
U251 CNS = system: U251 CNS
UACC-257 melanoma = system: UACC-257 melanoma
NCI-H23 lung = system: NCI-H23 lung
SW-620 colon = system: SW-620 colon
NCI-H522 lung = system: NCI-H522 lung
XF 498 CNS = system: XF 498 CNS
IGROV1 ovarian = system: IGROV1 ovarian
EKVX NSCLC = system: EKVX NSCLC
SK-MEL-28 melanoma = system: SK-MEL-28 melanoma
SF-268 CNS = system: SF-268 CNS
RPMI-8226 leukemia = system: RPMI-8226 leukemia
K-562 leukemia = system: K-562 leukemia
HOP-62 NSCLC = system: HOP-62 NSCLC
OVCAR-5 ovarian = system: OVCAR-5 ovarian
SF-295 CNS = system: SF-295 CNS
DMS 273 small cell lung = system: DMS 273 small cell lung
SNB-78 CNS = system: SNB-78 CNS
KM20L2 colon = system: KM20L2 colon
RXF 393 renal = system: RXF 393 renal
A549 NSCLC = system: A549 NSCLC
KM12 colon = system: KM12 colon
SR leukemia = system: SR leukemia
SK-MEL-5 melanoma = system: SK-MEL-5 melanoma
HCT-116 colon = system: HCT-116 colon
HCT-15 colon = system: HCT-15 colon
DLD-1 colon = system: DLD-1 colon
M14 melanoma = system: M14 melanoma
HOP-18 NSCLC = system: HOP-18 NSCLC
LXFL 529 NSCLC = system: LXFL 529 NSCLC
UO-31 renal = system: UO-31 renal
SK-OV-3 ovarian = system: SK-OV-3 ovarian
OVCAR-3 ovarian = system: OVCAR-3 ovarian
SK-MEL-2 melanoma = system: SK-MEL-2 melanoma
DMS 114 small cell lung = system: DMS 114 small cell lung
UACC-62 melanoma = system: UACC-62 melanoma
786-0 renal = system: 786-0 renal
A498 renal = system: A498 renal
HOP-92 NSCLC = system: HOP-92 NSCLC
SNB-75 CNS = system: SNB-75 CNS
MALME-3M melanoma = system: MALME-3M melanoma
OVCAR-8 ovarian = system: OVCAR-8 ovarian
ACHN renal = system: ACHN renal
HL-60(TB) leukemia = system: HL-60(TB) leukemia
MOLT-4 leukemia = system: MOLT-4 leukemia
HCC-2998 colon = system: HCC-2998 colon

`C[CH2][Sn]([CH2]C)([O]C(=O)c1ccccc1F)[O][Sn]([CH2]C)([CH2]C)[O]C(=O)c1ccccc1F` was tested. Which GI50 (LOX IMVI melanoma) did it give?
Its GI50 is 19.4 µM.

What about the TGI (LOX IMVI melanoma) of the same compound?
Its TGI is 37.1 µM.

What about the GI50 (TK-10 renal) of the same compound?
Its GI50 is 18 µM.

What about the TGI (TK-10 renal) of the same compound?
Its TGI is 32.1 µM.

What about the GI50 (CCRF-CEM leukemia) of the same compound?
Its GI50 is 4.67 µM.

What about the TGI (CCRF-CEM leukemia) of the same compound?
Its TGI is 21.6 µM.

And the GI50 (OVCAR-4 ovarian)?
Its GI50 is over 51.7 µM.

What about the TGI (OVCAR-4 ovarian) of the same compound?
Its TGI is over 82.8 µM.

What about the GI50 (HT29 colon) of the same compound?
The GI50 was 39.8 µM.

What about the TGI (HT29 colon) of the same compound?
Its TGI is over 72.7 µM.

And the GI50 (SF-539 CNS)?
Its GI50 is 20.5 µM.

And the TGI (SF-539 CNS)?
The TGI was 46.9 µM.

What about the GI50 (SNB-19 CNS) of the same compound?
The GI50 was over 43.6 µM.

And the TGI (SNB-19 CNS)?
Its TGI is over 57.6 µM.

And the GI50 (COLO 205 colon)?
Its GI50 is 25.6 µM.

What about the TGI (COLO 205 colon) of the same compound?
The TGI was over 57.9 µM.

What about the GI50 (M19-MEL melanoma) of the same compound?
The GI50 was 28.6 µM.

And the TGI (M19-MEL melanoma)?
The TGI was over 100 µM.

And the GI50 (NCI-H460 lung)?
The GI50 was over 54 µM.

And the TGI (NCI-H460 lung)?
The TGI was over 100 µM.

And the GI50 (NCI-H226 lung)?
Its GI50 is 20.2 µM.

What about the TGI (NCI-H226 lung) of the same compound?
The TGI was 37.6 µM.

What about the GI50 (CAKI-1 renal) of the same compound?
Its GI50 is 14.2 µM.

And the TGI (CAKI-1 renal)?
The TGI was 27.7 µM.

What about the GI50 (SN12C renal) of the same compound?
Its GI50 is 27 µM.

What about the TGI (SN12C renal) of the same compound?
Its TGI is over 57.4 µM.

And the GI50 (U251 CNS)?
The GI50 was 17.1 µM.

And the TGI (U251 CNS)?
The TGI was 31.6 µM.

And the GI50 (UACC-257 melanoma)?
The GI50 was 18.4 µM.

And the TGI (UACC-257 melanoma)?
The TGI was 35.4 µM.

What about the GI50 (NCI-H23 lung) of the same compound?
The GI50 was 15.8 µM.

What about the TGI (NCI-H23 lung) of the same compound?
Its TGI is 33.6 µM.

What about the GI50 (SW-620 colon) of the same compound?
Its GI50 is 20.3 µM.

What about the TGI (SW-620 colon) of the same compound?
Its TGI is 36.5 µM.

What about the GI50 (NCI-H522 lung) of the same compound?
Its GI50 is 1.24 µM.

And the TGI (NCI-H522 lung)?
The TGI was 2.61 µM.

And the GI50 (XF 498 CNS)?
The GI50 was 16.1 µM.

What about the TGI (XF 498 CNS) of the same compound?
Its TGI is 29.9 µM.

And the GI50 (IGROV1 ovarian)?
The GI50 was over 87.8 µM.

And the TGI (IGROV1 ovarian)?
The TGI was over 100 µM.

What about the GI50 (EKVX NSCLC) of the same compound?
The GI50 was 33.9 µM.

And the TGI (EKVX NSCLC)?
The TGI was over 100 µM.

What about the GI50 (SK-MEL-28 melanoma) of the same compound?
The GI50 was 18.7 µM.

What about the TGI (SK-MEL-28 melanoma) of the same compound?
The TGI was 33.4 µM.

What about the GI50 (SF-268 CNS) of the same compound?
Its GI50 is 23.2 µM.

And the TGI (SF-268 CNS)?
The TGI was 50.7 µM.

What about the GI50 (RPMI-8226 leukemia) of the same compound?
The GI50 was 20.9 µM.

And the TGI (RPMI-8226 leukemia)?
The TGI was over 100 µM.

And the GI50 (K-562 leukemia)?
The GI50 was 13.5 µM.

What about the TGI (K-562 leukemia) of the same compound?
The TGI was 36.6 µM.

What about the GI50 (HOP-62 NSCLC) of the same compound?
Its GI50 is over 100 µM.

And the TGI (HOP-62 NSCLC)?
Its TGI is over 100 µM.

And the GI50 (OVCAR-5 ovarian)?
Its GI50 is over 49.3 µM.

And the TGI (OVCAR-5 ovarian)?
The TGI was over 71.4 µM.

And the GI50 (SF-295 CNS)?
Its GI50 is 42.1 µM.

What about the TGI (SF-295 CNS) of the same compound?
The TGI was over 57.8 µM.

What about the GI50 (DMS 273 small cell lung) of the same compound?
Its GI50 is over 62.6 µM.

What about the TGI (DMS 273 small cell lung) of the same compound?
Its TGI is over 100 µM.

What about the GI50 (SNB-78 CNS) of the same compound?
Its GI50 is 18.7 µM.

What about the TGI (SNB-78 CNS) of the same compound?
The TGI was 46.7 µM.

What about the GI50 (KM20L2 colon) of the same compound?
Its GI50 is over 51.2 µM.

What about the TGI (KM20L2 colon) of the same compound?
Its TGI is over 77.9 µM.

And the GI50 (RXF 393 renal)?
The GI50 was 14.1 µM.

What about the TGI (RXF 393 renal) of the same compound?
Its TGI is 27.9 µM.

What about the GI50 (A549 NSCLC) of the same compound?
Its GI50 is over 100 µM.

What about the TGI (A549 NSCLC) of the same compound?
The TGI was over 100 µM.

What about the GI50 (KM12 colon) of the same compound?
The GI50 was over 67.6 µM.

And the TGI (KM12 colon)?
Its TGI is over 100 µM.

And the GI50 (SR leukemia)?
Its GI50 is 34.6 µM.

And the TGI (SR leukemia)?
The TGI was over 100 µM.

What about the GI50 (SK-MEL-5 melanoma) of the same compound?
The GI50 was 41.2 µM.

And the TGI (SK-MEL-5 melanoma)?
The TGI was over 70.3 µM.

What about the GI50 (HCT-116 colon) of the same compound?
Its GI50 is 38 µM.

And the TGI (HCT-116 colon)?
Its TGI is over 70.9 µM.

And the GI50 (HCT-15 colon)?
Its GI50 is 34.3 µM.

And the TGI (HCT-15 colon)?
The TGI was over 62.8 µM.

What about the GI50 (DLD-1 colon) of the same compound?
Its GI50 is 18.4 µM.

What about the TGI (DLD-1 colon) of the same compound?
Its TGI is 54.7 µM.

And the GI50 (M14 melanoma)?
Its GI50 is 26.5 µM.

And the TGI (M14 melanoma)?
Its TGI is over 57.2 µM.

What about the GI50 (HOP-18 NSCLC) of the same compound?
The GI50 was 22.7 µM.

What about the TGI (HOP-18 NSCLC) of the same compound?
Its TGI is 51.6 µM.

What about the GI50 (LXFL 529 NSCLC) of the same compound?
The GI50 was 9.79 µM.

And the TGI (LXFL 529 NSCLC)?
The TGI was 22.1 µM.

What about the GI50 (UO-31 renal) of the same compound?
Its GI50 is over 72.4 µM.

What about the TGI (UO-31 renal) of the same compound?
Its TGI is over 100 µM.

And the GI50 (SK-OV-3 ovarian)?
Its GI50 is over 50.5 µM.

And the TGI (SK-OV-3 ovarian)?
Its TGI is over 90.3 µM.

And the GI50 (OVCAR-3 ovarian)?
The GI50 was over 42 µM.

What about the TGI (OVCAR-3 ovarian) of the same compound?
The TGI was over 56.3 µM.

What about the GI50 (SK-MEL-2 melanoma) of the same compound?
The GI50 was 19.1 µM.

What about the TGI (SK-MEL-2 melanoma) of the same compound?
The TGI was 38.6 µM.

And the GI50 (DMS 114 small cell lung)?
The GI50 was 15.8 µM.

What about the TGI (DMS 114 small cell lung) of the same compound?
The TGI was 30 µM.

And the GI50 (UACC-62 melanoma)?
The GI50 was 18.1 µM.

What about the TGI (UACC-62 melanoma) of the same compound?
The TGI was 35.1 µM.

And the GI50 (786-0 renal)?
The GI50 was 25.2 µM.

And the TGI (786-0 renal)?
Its TGI is over 56.6 µM.

What about the GI50 (A498 renal) of the same compound?
Its GI50 is 22.5 µM.

And the TGI (A498 renal)?
The TGI was 37.4 µM.

What about the GI50 (HOP-92 NSCLC) of the same compound?
Its GI50 is 19 µM.

What about the TGI (HOP-92 NSCLC) of the same compound?
The TGI was 34.7 µM.

And the GI50 (SNB-75 CNS)?
Its GI50 is 25.1 µM.

What about the TGI (SNB-75 CNS) of the same compound?
Its TGI is over 57.8 µM.

And the GI50 (MALME-3M melanoma)?
The GI50 was 14.9 µM.

And the TGI (MALME-3M melanoma)?
The TGI was 30.4 µM.

What about the GI50 (OVCAR-8 ovarian) of the same compound?
The GI50 was over 62 µM.

And the TGI (OVCAR-8 ovarian)?
Its TGI is over 100 µM.

And the GI50 (ACHN renal)?
The GI50 was 18.7 µM.

What about the TGI (ACHN renal) of the same compound?
The TGI was 33 µM.

What about the GI50 (HL-60(TB) leukemia) of the same compound?
The GI50 was 43.3 µM.

And the TGI (HL-60(TB) leukemia)?
The TGI was over 75.7 µM.

What about the GI50 (MOLT-4 leukemia) of the same compound?
Its GI50 is 22 µM.

And the TGI (MOLT-4 leukemia)?
Its TGI is over 75.3 µM.

What about the GI50 (HCC-2998 colon) of the same compound?
Its GI50 is over 43.7 µM.

What about the TGI (HCC-2998 colon) of the same compound?
Its TGI is over 73.8 µM.
